# Test results reported in patent publication US20180140578A1, “METHODS AND COMPOSITIONS FOR THE DIAGNOSIS AND SELECTIVE TREATMENT OF CANCER” (Board of Regents of the University of Texas System, priority 2016, published 2018).
# Entries after “also recorded” stand apart in the source; their conditions may differ.
# Columns and labels:
# [1] = system: tumors derived from parental HCT-116 cells; assay: Mouse xenograft model, parental HCT-116; type: in vivo, Nod-Scid IL-2Rγ KO mice
# Procedure: All animal work was approved by the Institutional Animal Care and Use Committee at UTSW. UTSW is accredited by the Association for Assessment and Accreditation of Laboratory Animal Care International (AAALAC). Animals were obtained from the UTSW Breeding Core Facility. Nod-Scid IL-2Rγ KO mice were implanted with 5 million parental HCT-116 cells or HCT-116 cells expressing RBM39 G268V in a volume of 0.1 ml in the left flank. Tumor volumes were measured every 2-4 days with calipers. Volume is calculated as (L*W^2)*3.14)/6.
# RBM39-3xFLAG = biological target: T1, RBM39-3xFLAG (Homo sapiens, UniProt Q14498+Q66K64); assay: In vivo polyubiquitination of RBM39; type: cell-based; details: DCAF15 co-expressed; 293T cells
# T1 construct: expressed in transfected cells; host or cells: 293T
# Procedure: (§1) cDNAs encoding RBM39-3xFLAG, RBM39 G268V-3xFLAG, and DCAF15-V5 were cloned into the pCDNA3.1+vector. pCMV 8XHis Ub was a gift from William Kaelin (Dana Farber Cancer Institute). 0.4 million 293T cells were seeded per well on 6-well plates and allowed to attach overnight. 250 ng of pCMV 8XHis Ub, 500 ng of pCDNA3-DCAF15-V5, 10 ng of either pCDNA3-RBM39-3xFLAG or pCDNA3-RBM39 G268V-3xFLAG were transfected. […] Cells were lifted from the plates by pipetting, pelleted by centrifugation, and washed once with PBS. Purification of His-Ub tagged proteins was performed as described (5).
# RBM39 G268V-3xFLAG = biological target: T2, RBM39 G268V-3xFLAG (Homo sapiens, UniProt Q66K64); assay: In vivo polyubiquitination of RBM39 G268V; type: cell-based; details: following indisulam treatment
# T2 construct: expressed in transfected cells; host or cells: 293T
# Procedure: as §1
# [2] = biological target: T3, DDB1:DCAF15-GST and RBM39Δ150 (Homo sapiens, UniProt Q14498+Q66K64); assay: Indisulam dependent co-fractionation of DCAF15-DDB1 and RBM39 (size exclusion chromatography); type: binding; details: 10 μM indisulam
# T3 construct: made in house; host or cells: Sf9 (baculovirus)
# Procedure: RBM39 lacking the first 150 amino acids after the start codon (RBM39Δ150) was cloned into the pFastBac1 (Life Technologies) vector. Site-directed Mutagenesis of RBM39 was performed using Q5 site-directed mutagenesis kit (NEB). DCAF15-GST (C-terminal GST tag) and DDB1 were also cloned into pFastBac1. The production of baculovirus was carried out following vendor's instructions. Protein was expressed in SF9 cells by infection with each protein specific baculovirus, and cells were harvested 48 hr later and frozen in liquid nitrogen. For purification of RBM39Δ150, frozen cells were pulverized by cryomill and resuspended in lysis buffer (40 mM Tris, pH 7.5, 225 mM NaCl, 1× […] Protease inhibitor). The lysate was passed through a 22 gauge needle 2 times followed by ultracentrifugation at 25000 rpm for 30 min. Clarified lysate was incubated with Ni-NTA agarose (Qiagen) for 30 min with rotation at 4° C. Resin and bound protein were washed with wash buffer 1 (40 mM Tris, pH 7.5, 225 mM NaCl) followed by wash buffer 2 (40 mM Tris, pH 7.5, 20 mM imidazole, 225 mM NaCl). Proteins were eluted with elution buffer (40 mM Tris, pH 7.5, 300 mM imidazole, 225 mM NaCl) and concentrated to 0.5 ml. […]
# The mixture was incubated for 1 hour with rotation at 4° C. […] 1 ml fractions were collected and analyzed by SDS-PAGE and coomassie blue staining.
# [3] = system: pre-mRNA splicing in HCT-116 cells harboring RBM39 G268V; assay: RNA-seq analysis of splicing changes, RBM39 G268V; type: cell-based, human; details: 2 μM indisulam
# Source text: RNAs were extracted using Quick-RNA MiniPrep kit (Zymo Research). After cleaning up genomic DNA contaminant with Turbo DNase (Life Technologies) and rRNA depletion, strand-specific cDNA libraries were generated using the TruSeq Stranded mRNA Sample Prep Kit (IIlumina) and were subjected to high throughput sequencing using
# HiSeq2500 platform (Illumina) with 100-bp single-end reads. NGS QC Toolkit (v2.3.1) (49) was used to check the sequencing quality, and high-quality reads were aligned by TopHat (v2.0.8) (50) to human reference genome (hg19) along with the gene annotation data downloaded from Illumina's iGenomes (support.illumina.com/sequencing/sequencing_software/igenome.ilmn). The insert-size metrics required in TopHat execution and the correctness of strand specificity were estimated by mapping reads to human transcript sequences using Bowtie (v2.1.0) (51) and Picard-tools (v1.99) (picard.sourceforge.net). The htseq-count script distributed with the HTSeq Python package (0.6.1) (pypi.python.org/pypi/HTSeq) was employed for counting reads in genes considering the coding strands. Source data for RNA sequencing data is available under NCBI SRA accession SRP096666.
# For the stringent detection of differential skipped exons and retained introns, a custom program called SpliceFisher was developed and it is downloadable at github.com/jiwoongbio/SpliceFisher. […]
# [4] = advanced stage patients with solid tumors; monotherapy; cited from earlier work
# T3 sequence (Q66K64 whole entry, stated change not applied): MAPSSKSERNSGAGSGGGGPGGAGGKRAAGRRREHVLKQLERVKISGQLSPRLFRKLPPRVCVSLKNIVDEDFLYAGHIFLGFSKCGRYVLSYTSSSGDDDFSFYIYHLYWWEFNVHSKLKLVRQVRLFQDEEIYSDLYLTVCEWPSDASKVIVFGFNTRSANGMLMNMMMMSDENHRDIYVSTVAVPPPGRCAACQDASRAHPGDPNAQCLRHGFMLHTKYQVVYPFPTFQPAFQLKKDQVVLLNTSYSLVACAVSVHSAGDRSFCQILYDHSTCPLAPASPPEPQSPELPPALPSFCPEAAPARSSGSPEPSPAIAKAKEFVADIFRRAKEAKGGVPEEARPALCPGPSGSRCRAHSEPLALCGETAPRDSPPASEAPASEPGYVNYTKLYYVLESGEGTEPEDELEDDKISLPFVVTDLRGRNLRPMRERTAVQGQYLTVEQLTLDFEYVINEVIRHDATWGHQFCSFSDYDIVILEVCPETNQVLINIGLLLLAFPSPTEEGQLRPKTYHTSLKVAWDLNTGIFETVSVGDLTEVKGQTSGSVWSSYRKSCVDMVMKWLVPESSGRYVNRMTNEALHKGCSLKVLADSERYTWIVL
# T3 sequence (Q14498 151-530 limits assumed, stated change not applied): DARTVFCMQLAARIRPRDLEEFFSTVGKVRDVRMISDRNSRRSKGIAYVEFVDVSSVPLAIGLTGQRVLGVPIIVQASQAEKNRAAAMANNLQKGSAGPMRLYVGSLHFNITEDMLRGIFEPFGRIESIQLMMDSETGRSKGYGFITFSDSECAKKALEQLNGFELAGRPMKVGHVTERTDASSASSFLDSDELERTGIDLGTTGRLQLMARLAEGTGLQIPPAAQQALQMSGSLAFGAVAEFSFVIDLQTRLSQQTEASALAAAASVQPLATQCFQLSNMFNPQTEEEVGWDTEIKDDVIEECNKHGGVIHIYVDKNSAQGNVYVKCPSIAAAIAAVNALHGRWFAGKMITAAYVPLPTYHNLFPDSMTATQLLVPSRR
# T3 sequence (Q16531 whole entry partner): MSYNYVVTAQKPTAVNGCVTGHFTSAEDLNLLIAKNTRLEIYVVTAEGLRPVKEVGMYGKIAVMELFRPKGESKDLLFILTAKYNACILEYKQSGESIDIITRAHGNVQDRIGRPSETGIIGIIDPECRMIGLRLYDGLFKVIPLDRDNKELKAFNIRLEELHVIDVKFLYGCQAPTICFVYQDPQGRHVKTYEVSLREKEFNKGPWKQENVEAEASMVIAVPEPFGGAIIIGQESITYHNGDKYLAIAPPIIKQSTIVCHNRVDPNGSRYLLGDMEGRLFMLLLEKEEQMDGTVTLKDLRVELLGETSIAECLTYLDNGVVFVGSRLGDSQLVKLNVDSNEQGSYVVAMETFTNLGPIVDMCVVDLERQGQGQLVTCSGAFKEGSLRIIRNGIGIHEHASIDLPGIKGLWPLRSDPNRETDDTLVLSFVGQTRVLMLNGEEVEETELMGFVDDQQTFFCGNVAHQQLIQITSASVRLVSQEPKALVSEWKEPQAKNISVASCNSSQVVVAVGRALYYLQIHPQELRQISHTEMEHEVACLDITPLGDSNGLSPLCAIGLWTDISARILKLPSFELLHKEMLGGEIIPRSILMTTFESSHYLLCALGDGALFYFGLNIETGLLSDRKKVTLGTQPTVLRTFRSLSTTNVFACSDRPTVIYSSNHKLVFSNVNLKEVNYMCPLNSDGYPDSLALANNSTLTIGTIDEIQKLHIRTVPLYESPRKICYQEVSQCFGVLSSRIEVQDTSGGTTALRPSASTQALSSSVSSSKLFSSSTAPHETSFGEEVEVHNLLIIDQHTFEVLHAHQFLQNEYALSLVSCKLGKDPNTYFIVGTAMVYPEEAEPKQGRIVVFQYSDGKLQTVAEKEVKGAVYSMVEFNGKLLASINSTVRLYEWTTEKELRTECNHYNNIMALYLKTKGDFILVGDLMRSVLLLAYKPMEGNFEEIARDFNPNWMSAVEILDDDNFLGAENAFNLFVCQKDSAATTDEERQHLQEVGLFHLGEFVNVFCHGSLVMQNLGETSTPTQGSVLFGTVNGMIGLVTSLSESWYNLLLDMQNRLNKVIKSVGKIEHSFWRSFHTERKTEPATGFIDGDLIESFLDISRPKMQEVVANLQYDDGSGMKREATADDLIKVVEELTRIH
compound,measurement,setting,value
"NS(=O)(=O)c1ccc(S(=O)(=O)Nc2cccc3c(Cl)c[nH]c23)cc1 [Indisulam, indisulam]",tumor response,[1]; 25 mg/kg indisulam intravenous once a day for eight days,complete regression; also recorded: regress
same,Average maximal weight loss from start of therapy to 1 day post final dose,"[1]; parental HCT-116 xenograft, 25 mg/kg once a day for eight days",5.2%
same,RBM39 ubiquitination,RBM39-3xFLAG,increased RBM39 ubiquitination
same,RBM39 G268V ubiquitination,RBM39 G268V-3xFLAG,not ubiquitinated
same,elution of RBM39Δ150 with DDB1:DCAF15-GST peak,[2],co-elutes
same,exon skipping events,[3]; HCT-116 RBM39 G268V,3
same,intron retention events,[3]; cells expressing the RBM39 G268V allele,no intron retention event
same,stable disease,[4],17-36 % of patients
